Reference: publication PMC5652037 (EBioMedicine, 2017)

Target: γ-secretase (catalytic subunit presenilin 1, PS1) (Cricetulus griseus, UniProt G3HNF2)
Assay: Aβ[…] secretion
Format: cell-based

IC50: 46.7 nM
Compound: CC(C)[C@H](O)C(=O)N[C@@H](C)C(=O)N[C@@H]1C(=O)N(C)CCc2ccccc21 [semagacestat]
